Experimental data reported in US20260374794A1, “COMPOUNDS TARGETING MUTANT OF P53” (JACOBIO PHARMACEUTICALS CO., LTD., priority 2022, published 2026).

The molecules below were run against T1, p53(Y220C) (Homo sapiens, UniProt P04637, Y220C) (assay: In vitro DNA binding assay (HTRF), His-p53 Y220C (94-294) with biotinylated p53 consensus DNA). Conditions: not given.
T1 construct: His-p53 Y220C (94-294) protein
Format: biochemical
Protocol: After His-p53 Y220C (94-294) protein was placed with a compound in the present of MAb Anti His-Tb cryptate (Cisbio, Cat. NO. 61HI2TLA) in a 384 well microplate (Greiner) for 15 min at 25 °C, the assay plate was transferred into 27 °C incubator and incubated for 60 min. Biotinalyted p53 consensus DNA (ID: p53-SEQUENCE 2 —F: 5′(biotin)-[…] 3′ —R: 5′ […] 3′) was added into the assay plate in the present of Streptaidin-d2 (Cisbio, Cat. NO. 610SADLF) cryptate (Final concentration: 20 mM HEPES pH=7.4, 75 mM KCl, 1 mM MgCl2, 0.1% (w/v) BSA, 1 mM DTT, 2.5 nM His-P53 Y220C (94-294) protein, 0.33 nM MAb Anti His-Tb cryptate, 2.5 nM Streptaidin-d2 cryptate, 10 nM Biotinalyted DNA) and incubated for another 60 min. Wells containing 2 μM reference compound Ref-1a served as high control, and wells containing same percentage of DMSO served as low control. Homogeneous time-resolved fluorescence (HTRF) signals were read on Tecan Spark multimode microplate reader. HTRF ratios for each individual well were calculated by equation: HTRF ratio=(Signal F665/Signal F620)*1000. The percent of activation of compounds treated wells were normalized between high control and low control (% Activation=(HTRF ratiocompound treated−HTRF ratiolow control)/(HTRF ratiohigh control−HTRF ratiolow control)*100%). Then the data were analyzed either by fitting a 4-parameter logistic model or by Excel to calculate EC50 values. And the EC50 was the concentration at 50% Activation on the curve.

Row | EC50 | Structure (SMILES)
1 | 124 nM | COc1cc(P(C)(C)=O)ccc1NCC#Cc1sc2c(N[C@H]3CN4CCC3CC4)cccc2c1CC(F)(F)F [Example 46, (R)-(3-methoxy-4-((3-(7-(quinuclidin-3-ylamino)-3-(2,2,2-trifluoroethyl)benzo[b]thiophen-2-yl)prop-2-yn-1-yl)amino)phenyl)dimethylphosphine oxide]

Same assay, conditions: HTRF; 27 °C; His-p53 Y220C (94-294) 2.5 nM; biotinylated DNA 10 nM; normalized to 2 μM Ref-1a; EC50 = concentration at 50% Activation; read-out: p53(Y220C) EC50

Row | EC50 | Structure (SMILES)
2 | 353 nM | COc1cc(P(C)(C)=O)ccc1NCC#Cc1sc2c(NC3CCN(C)CC3)nccc2c1CC(F)(F)F [Example 4, (3-methoxy-4-((3-(7-((1-methylpiperidin-4-yl)amino)-3-(2,2,2-trifluoroethyl)thieno[2,3-c]pyridin-2-yl)prop-2-yn-1-yl)amino)phenyl)dimethylphosphine oxide]
3 | 323 nM | COc1cc(N2CC(=O)NS2(=O)=O)ccc1NCC#Cc1sc2c(N[C@@H]3CCN(C)C[C@@H]3F)cccc2c1CC(F)(F)F [Example 5, 5-(4-((3-(7-(((3S,4R)-3-fluoro-1-methylpiperidin-4-yl)amino)-3-(2,2,2-trifluoroethyl)benzo[b]thiophen-2-yl)prop-2-yn-1-yl)amino)-3-methoxyphenyl)-1,2,5-thiadiazolidin-3-one-1,1-dioxide]
4 | 209 nM | COc1cc(P(C)(C)=O)ccc1NCC#Cc1sc2c(NC3CCS(=N)(=O)CC3)cccc2c1CC(F)(F)F (centres unmarked) [Example 6, (4-((3-(7-((1-imino-1-oxidohexahydro-1l6-thiopyran-4-yl)amino)-3-(2,2,2-trifluoroethyl)benzo[b]thiophen-2-yl)prop-2-yn-1-yl)amino)-3-methoxyphenyl)dimethylphosphine oxide]
5 | 250 nM | COc1cc(P(C)(C)=O)ccc1NCC#Cc1sc2c(NCC3(F)CCN(C)CC3)cccc2c1CC(F)(F)F [Example 16, (4-((3-(7-(((4-fluoro-1-methylpiperidin-4-yl)methyl)amino)-3-(2,2,2-trifluoroethyl)benzo[b]thiophen-2-yl)prop-2-yn-1-yl)amino)-3-methoxyphenyl)dimethylphosphine oxide]
6 | 424 nM | CN1CC[C@@H](Nc2cccc3c(CC(F)(F)F)c(C#C[C@@H]4Cc5cc(P(C)(C)=O)ccc5N4)sc23)[C@@H](F)C1 [Example 21, ((S)-2-((7-(((3S,4R)-3-fluoro-1-methylpiperidin-4-yl)amino)-3-(2,2,2-trifluoroethyl)benzo[b]thiophen-2-yl)ethynyl)indolin-5-yl)dimethylphosphine oxide]
7 | 62 nM | COc1cc([S@](=N)(=O)C2CCOCC2)ccc1NCC#Cc1sc2c(N[C@@H]3CCN(C)C[C@@H]3F)cccc2c1CC(F)(F)F [Example 25, (R)-(4-((3-(7-(((3S,4R)-3-fluoro-1-methylpiperidin-4-yl)amino)-3-(2,2,2-trifluoroethyl)benzo[b]thiophen-2-yl)prop-2-yn-1-yl)amino)-3-methoxyphenyl)(imino)(tetrahydro-2H-pyran-4-yl)-16-sulfanone]
8 | 117 nM | COc1cc(P(C)(C)=O)ccc1NCC#Cc1sc2c(N[C@H]3CCN(C)C[C@H]3F)cccc2c1[C@H](O)C(F)(F)F [Example 32, (4-((3-(7-(((3R,4S)-3-fluoro-1-methylpiperidin-4-yl)amino)-3-((S)-2,2,2-trifluoro-1-hydroxyethyl)benzo[b]thiophen-2-yl)prop-2-yn-1-yl)amino)-3-methoxyphenyl)dimethylphosphine oxide]
9 | 292 nM | CN1CC[C@@H](Nc2cccc3c(CC(F)(F)F)c(C#CCNc4ccc(P(C)(C)=O)cc4-c4nc(=O)o[nH]4)sc23)[C@@H](F)C1 [Example 39, 3-(5-(dimethylphosphoryl)-2-((3-(7-(((3S,4R)-3-fluoro-1-methylpiperidin-4-yl)amino)-3-(2,2,2-trifluoroethyl)benzo[b]thiophen-2-yl)prop-2-yn-1-yl)amino)phenyl)-1,2,4-oxadiazol-5(2H)-one]

Further lines, the molecule ahead of its results:

Row | Structure (SMILES) | EC50
10 | COc1cc(P(C)(C)=O)ccc1NCC#Cc1sc2c(N[C@H]3CCN(C)C[C@H]3F)cccc2c1C(C)C(F)(F)F (stereo partly drawn) [Example 17, (4-((3-(7-(((3R,4S)-3-fluoro-1-methylpiperidin-4-yl)amino)-3-(1,1,1-trifluoropropan-2-yl)benzo[b]thiophen-2-yl)prop-2-yn-1-yl)amino)-3-methoxyphenyl)dimethylphosphine oxide] | 251 nM
11 | COc1cc(P(C)(C)=O)ccc1NCC#Cc1sc2c(N[C@@H]3CCN(C)C[C@@H]3F)cccc2c1C(C)C(F)(F)F (stereo partly drawn) [Example 18, (4-((3-(7-(((3S,4R)-3-fluoro-1-methylpiperidin-4-yl)amino)-3-(1,1,1-trifluoropropan-2-yl)benzo[b]thiophen-2-yl)prop-2-yn-1-yl)amino)-3-methoxyphenyl)dimethylphosphine oxide] | 574 nM
12 | CN1CC[C@@H](Nc2cccc3c(CC(F)(F)F)c(C#C[C@H]4Cc5cc(P(C)(C)=O)ccc5N4)sc23)[C@@H](F)C1 [Example 22, ((R)-2-((7-(((3S,4R)-3-fluoro-1-methylpiperidin-4-yl)amino)-3-(2,2,2-trifluoroethyl)benzo[b]thiophen-2-yl)ethynyl)indolin-5-yl)dimethylphosphine oxide] | 313 nM
13 | COc1cc([S@@](=N)(=O)C(C)C)ccc1NCC#Cc1sc2c(N[C@@H]3CCN(C)C[C@@H]3F)cccc2c1CC(F)(F)F [Example 27, (S)-(4-((3-(7-(((3S,4R)-3-fluoro-1-methylpiperidin-4-yl)amino)-3-(2,2,2-trifluoroethyl)benzo[b]thiophen-2-yl)prop-2-yn-1-yl)amino)-3-methoxyphenyl)(imino)(isopropyl)-16-sulfanone] | 74 nM
14 | COc1cc(P(C)(C)=O)ccc1NCC#Cc1sc2c(N[C@H]3CCCN(C)C3)cccc2c1CC(F)(F)F [Example 29, (S)-(3-methoxy-4-((3-(7-((1-methylpiperidin-3-yl)amino)-3-(2,2,2-trifluoroethyl)benzo[b]thiophen-2-yl)prop-2-yn-1-yl)amino)phenyl)dimethylphosphine oxide] | 155 nM
15 | COc1cc(S(C)(=O)=O)ccc1NCC#Cc1sc2c(N[C@H]3CCN(C)C[C@H]3F)cccc2c1CC(F)(F)F [Example 35, (3R,4S)-3-fluoro-N-(2-(3-((2-methoxy-4-(methylsulfonyl)phenyl)amino)prop-1-yn-1-yl)-3-(2,2,2-trifluoroethyl)benzo[b]thiophen-7-yl)-1-methylpiperidin-4-amine] | 192 nM
16 | COc1cc(P(C)(C)=O)ccc1NCC#Cc1sc2c(N[C@H]3CCN(C)C[C@@H]3F)cccc2c1CC(F)(F)F [Example 38, (4-((3-(7-(((3S,4S)-3-fluoro-1-methylpiperidin-4-yl)amino)-3-(2,2,2-trifluoroethyl)benzo[b]thiophen-2-yl)prop-2-yn-1-yl)amino)-3-methoxyphenyl)dimethylphosphine oxide] | 373 nM
17 | COc1cc(-c2nc(=O)o[nH]2)ccc1NCC#Cc1sc2c(N[C@@H]3CCN(C)C[C@@H]3F)cccc2c1CC(F)(F)F [Example 40, 3-(4-((3-(7-(((3S,4R)-3-fluoro-1-methylpiperidin-4-yl)amino)-3-(2,2,2-trifluoroethyl)benzo[b]thiophen-2-yl)prop-2-yn-1-yl)amino)-3-methoxyphenyl)-1,2,4-oxadiazol-5(2H)-one] | 473 nM
18 | [2H]C([2H])([2H])Oc1cc(P(C)(C)=S)ccc1NCC#Cc1sc2c(N[C@@H]3CCN(C)C[C@@H]3F)cccc2c1CC(F)(F)F [Example 47, (4-((3-(7-(((3S,4R)-3-fluoro-1-methylpiperidin-4-yl)amino)-3-(2,2,2-trifluoroethyl)benzo[b]thiophen-2-yl)prop-2-yn-1-yl)amino)-3-(methoxy-d3)phenyl)dimethylphosphine sulfide] | 180 nM
19 | COc1cc([S@](=N)(=O)C(F)F)ccc1NCC#Cc1sc2c(N[C@@H]3CCN(C)C[C@@H]3F)cccc2c1CC(F)(F)F [Example 51, (S)-(difluoromethyl)(4-((3-(7-(((3S,4R)-3-fluoro-1-methylpiperidin-4-yl)amino)-3-(2,2,2-trifluoroethyl)benzo[b]thiophen-2-yl)prop-2-yn-1-yl)amino)-3-methoxyphenyl)(imino)-16-sulfanone] | 188 nM
20 | COc1cc([S@@](=N)(=O)C(F)F)ccc1NCC#Cc1sc2c(N[C@@H]3CCN(C)C[C@@H]3F)cccc2c1CC(F)(F)F [Example 52, (R)-(difluoromethyl)(4-((3-(7-(((3S,4R)-3-fluoro-1-methylpiperidin-4-yl)amino)-3-(2,2,2-trifluoroethyl)benzo[b]thiophen-2-yl)prop-2-yn-1-yl)amino)-3-methoxyphenyl)(imino)-16-sulfanone] | 135 nM
